Assay results as given in patent US10954222B2, “Benzothiophene compound, alternative autophagy-inducing agent and anticancer agent including the compound as active ingredient, and method for screening for compound having anticancer activity” (National University Corporation Tokyo Medical and Dental …, priority 2012, dated 2021).
Where two headings read alike, the source gives them in different places.

What was measured:
[1] = tested on: tumor cell line 53T implanted in wild-type C57/B6J mice; assay: In vivo anticancer activity, tumor volume in cancer-bearing mice implanted with 53T; design: species or system mouse; conditions: for anticancer activity (FIG. 17, tumor volumes in cancer-bearing mice): Example 9
Procedure: A tumor cell line (also referred to as “53T”) established from a tumor developed spontaneously in a p53 deficient C57/B6J mouse was implanted at 4 sites in the ventral skin of each of wild-type C57/B6J mice at 3×10^5 cells per site. From the following day, the compounds were administered to the mice every other day five times in total. The concentration of each compound was 0.4 μmol/(50 μl DMSO+100 μl PBS)/mouse/administration. In addition, a negative control group to which only the same amount of DMSO was administered was prepared. Then, 21 days (3 weeks) after the implantation, the tumor diameters of the mice were measured, and the tumor volumes were calculated, and compared with that of the control group.
The 53T was implanted at 4 sites in the ventral skin of each of wild-type C57/B6J mice at 3×10^5 cells per site. From the following day, 0 (DMSO alone), 5, 10, or 20 μM of each of compounds #09 and #13 was administered to six mice every other day five times in total. Then, 21 days (3 weeks) after the implantation, the tumor diameters of the mice were measured, and the tumor volumes were calculated. FIGS. 9 and 11 show the obtained results. Note that, in FIGS. 9 and 11, each point indicates the average volume of the tumors at the four sites in a mouse.
In addition, in the same manner as described above, the 53T was implanted in mice, and, from the following day, each of compound #09 at a concentration of 10 μM and compound #13 at a concentration of 5 μM was administered to four cancer-bearing mice every other day five times in total. Then, 21 days (3 weeks) after the implantation, the tumor diameters of the mice were measured, and the tumor volumes were calculated. In addition, a negative control to which DMSO was administered was also prepared, and the tumor volume was calculated in the same manner. In addition, these experiments were conducted three times independently of each other. FIGS. 10 and 12 show the obtained results. Note that in FIGS. 10 and 12, each point indicates the average volume of the tumors at the four sites in a mouse.

[2] = tested on: Lamp1-GFP/ATG5-KO MEFs; assay: Evaluation of activity to induce alternative autophagy (fluorescent bright spots due to aggregation of Lamp1-GFP); type: cell-based, mouse; conditions: for alternative autophagy-inducing activity (FIG. 16): Example 9, same method as Example 1; for ability to induce alternative autophagy, comparative statement: as shown in Examples; for aggregation of Lamp1-GFP, visually determined: concentrations of 10 μM or higher (10 to 50 μM), 5 hours
Procedure: First, by using a retrovirus, a gene for expression of a Lamp1-GFP fusion protein (also referred to as “Lamp1-GFP”) was introduced into ATG5-deficient mouse embryonic fibroblasts (also referred to as “ATG5-KO MEFs”). Then, a cell with high expression of Lamp1-GFP was cloned and prepared as Lamp1-GFP/ATG5-KO MEFs.
The ATG5-KO MEFs were prepared by introducing a gene for expression of SV40T antigen into MEFs established from an ATG5-deficient C57/B6J mouse at a fetal age of 14.5 days by an electroporation method using an Nucleofector system (manufactured by amaxa) for immortalization. In addition, the retrovirus was prepared by introducing an MSCV-Lamp1-GFP (zeocin resistant) vector into plat E cells, which were retrovirus packaging cells.
To the Lamp1-GFP/ATG5-KO MEFs seeded at 1×10^4/96 wells on the preceding day, each of the test compounds was added at a final concentration of 50 μM, and the Lamp1-GFP/ATG5-KO MEFs were cultured at 37° C. under 10% CO2 for 5 hours.
Then, for observation, Hoechst 33342 (manufactured by invitrogen) was added at a final concentration of 1 ng/ml to each culture liquid, followed by incubation for 5 minutes. Then, the culture liquid was replaced with 100 μl of HBSS. Subsequently, five visual fields per well were photographed at random with IN CELL ANALYZER 1000 (manufactured by GE Healthcare).
Then, the thus obtained novel benzothiophene compounds (TMD-459 and TMD-460) were evaluated for the ability to induce alternative autophagy by the same method as that described in Example 1. Note that, in Example 10, each of the compounds was added to culture liquids at final concentrations of 10, 20, 30, 40, and 50 μM. In addition, compound #9 was also added as a reference example to culture liquids at the above-described concentrations. Then, 5 hours after the addition of each of these compounds, five visual fields per each well were photographed at random with IN CELL ANALYZER 1000, and the presence or absence of fluorescent bright spots due to the aggregation of Lamp1-GFP was visually determined.

[3] = tested on: MEFs immortalized with SV40T antigen; assay: cells; conditions: Mus musculus, 24 h, read-out: induced cell death of the MEFs immortalized with SV40T antigen
[4] = tested on: MEFs immortalized with SV40T antigen; conditions: 24 hours, CTB
[5] = Cell-killing effect (necrosis) of analogous compounds; type: cell-based; conditions: even when added at a low concentration
[6] = tested on: mouse tumor cell line 53T; assay: Evaluation of in vitro anticancer activity (Cell titer blue, cell death induction rate); type: cell-based; design: key: (CTB of negative control − CTB treated)/CTB of negative control; conditions: 24 hours, CTB
Procedure: First, the mouse tumor cell line 53T was seeded at 2×10^4/well on 96 well plates. Then, on the following day, each of compounds #09 and #13 dissolved in DMSO was added at a final concentration of 1, 5, 10, 20, or 50 μM. In addition, a negative control to which only DMSO was added was prepared. Subsequently, the cells were cultured at 37° C. under 10% CO2 for 24 hours. Then, by using Cell titer blue (CTB) (manufactured by Promega) according to the attached protocol, the amount of the fluorescence of each well of the cells 10 minutes after the addition of the CTB reagent was measured as a CTB measurement value of the cells brought into contact with compound #09 or #13. On the basis of such measurement values, the cell death induction rate of each of compounds #09 and #13 was calculated according to the following formula. Cell death induction rate=(CTB measurement value of negative control−CTB measurement value of cells to which compound was added)/CTB measurement value of negative control

[7] = tested on: primary cultured fibroblasts (normal cells); assay: Activity to induce cell death specific to cancer cells: normal cells (CTB survival rate); type: cell-based; conditions: 20 μM, FIGS. 7 and 8
Procedure: CTB measurement values were obtained in the same manner as in the above-described <Evaluation of In Vitro Anticancer Activity> by adding each of compounds #09 and #13 at a final concentration of 20 μM to culture liquids of primary cultured fibroblasts (normal cells) and fibroblasts (cancer cells) immortalized with SV40. On the basis of the obtained CTB measurement values, the cell survival rate was calculated over time. Note that the cell survival rate was defined as 1-cell death induction rate. FIGS. 7 and 8 show the obtained results.

[8] = tested on: p53-deficient cancer cells (53T); assay: Alternative autophagy-inducing activity in tumor cell line (Lamp2 aggregation, fluorescence and electron microscope); type: cell-based, mouse; conditions: 20 μM, six hours, FIGS. 3 to 6
Procedure: In the same manner as in the above-described <Evaluation of Alternative Autophagy-Inducing Activity> using the Lamp1-GFP/ATG5-KO MEFs, each of the compounds #09 and #13 was added at a final concentration of 20 μM to a culture liquid of the tumor cell line (also referred to as “53T”) established from the tumor developed spontaneously in the p53 deficient C57/B6J mouse. […] Note that, in this evaluation, Lamp2 was used instead of Lamp1. FIGS. 3 to 6 show the obtained results.

[9] = tested on: fibroblasts (cancer cells) immortalized with SV40; assay: Activity to induce cell death specific to cancer cells: cancer cells (CTB survival rate); type: cell-based; conditions: 20 μM, FIGS. 7 and 8
[10] = tested on: 53T implanted in wild-type C57/B6J mice; assay: Survival rate of cancer-bearing mice; type: in vivo, mouse; conditions: 10 μM every other day 5 times; compared with etoposide at 10 μM, FIGS. 13 to 15

## CCCC(=O)c1c(NC(C)=O)sc2c(Cl)c(/C=N\CCCCO)ccc12 [compound 46]
[1]
  anticancer activity (FIG. 17, tumor volumes in cancer-bearing mice): did not have anticancer activity
[2]
  alternative autophagy-inducing activity (FIG. 16): no alternative autophagy-inducing activity

## CCOC(=O)c1c(NC(C)=O)sc2c(OCCN(CC)CC)c(-c3ccc(OC)cc3)ccc12 [formula (1-10)]
[2]
  ability to induce alternative autophagy, comparative statement: ability to induce alternative autophagy is higher

## CCOC(=O)c1c(NC(C)=O)sc2c(OCCN(CC)CC)c(-c3ccccc3)ccc12 [TMD-459, Ethyl 2-Acetylamino-7-[2-(N,N-diethylamino)ethyloxy]-6-phenylbenzo[b]thiophene-3-carboxylate]
[2]
  aggregation of Lamp1-GFP, visually determined: aggregation of the Lamp1-GFP was observed in all the cells

## COc1c(Br)ccc2c(C(=O)O)c(NC(C)=O)sc12 [compound 40]
[1]
  anticancer activity (FIG. 17, tumor volumes in cancer-bearing mice): did not have anticancer activity
[2]
  alternative autophagy-inducing activity (FIG. 16): no alternative autophagy-inducing activity

## CCOC(=O)c1c(NC(C)=O)sc2c(OCCN(CC)CC)c(-c3ccccc3SC)ccc12 [formula (1-14)]
[2]
  ability to induce alternative autophagy, comparative statement: ability to induce alternative autophagy is higher

## CCOC(=O)c1c(N)sc2c(OCCN(CC)CC)c(Br)ccc12 [TMD-460, Ethyl 2-Amino-7-[2-(N,N-diethylamino)ethyloxy]-6-bromobenzo[b]thiophene-3-carboxylate]
[3]
  mortality at 20 µM: ≥ 80%
[2]
  aggregation of Lamp1-GFP, visually determined: aggregation of the Lamp1-GFP was observed in all the cells
[4]; 10 μM
  Cell death induction rate: 0.7701
[4]; 20 μM
  Cell death induction rate: 0.875
[4]; 30 μM
  Cell death induction rate: 0.8885
[4]; 40 μM
  Cell death induction rate: 0.8902
[4]; 50 μM
  Cell death induction rate: 0.8919

## CCOC(=O)c1c(NC(=O)c2ccccc2)sc2c(O)c(Br)cc(Br)c12 [compound 42]
[1]
  anticancer activity (FIG. 17, tumor volumes in cancer-bearing mice): did not have anticancer activity
[2]
  alternative autophagy-inducing activity (FIG. 16): no alternative autophagy-inducing activity

## CCOC(=O)c1c(NC(C)=O)sc2c(OCCN(CC)CC)c(-c3ccc(O)cc3)ccc12 [formula (1-15)]
[2]
  ability to induce alternative autophagy, comparative statement: ability to induce alternative autophagy is higher

## CCOC(=O)c1c(NC(C)=O)sc2c(OC(C)=O)cccc12 [compound 37]
[1]
  anticancer activity (FIG. 17, tumor volumes in cancer-bearing mice): did not have anticancer activity
[2]
  alternative autophagy-inducing activity (FIG. 16): no alternative autophagy-inducing activity

## CCOC(=O)c1c(NC(C)=O)sc2c(OCCN(CC)CC)c(-c3cccs3)ccc12 [formula (1-17)]
[2]
  ability to induce alternative autophagy, comparative statement: ability to induce alternative autophagy is higher

## CCOC(=O)c1c(NC(C)=O)sc2c(OCC(O)CNC3CCCCC3)c(Br)ccc12 (stereo not drawn) [compound 36]
[5]
  cell-killing effect (necrosis): strong cell-killing effect (necrosis)

## C=CC/N=C/c1cc(C)c2c(C(=O)OCC)c(NC(C)=O)sc2c1Cl [compound 47]
[5]
  cell-killing effect (necrosis): strong cell-killing effect (necrosis)

## CCOC(=O)c1c(NC(C)=O)sc2c(OCCN(CC)CC)c(-c3ccsc3)ccc12 [formula (1-18)]
[2]
  ability to induce alternative autophagy, comparative statement: ability to induce alternative autophagy is higher

## CCOC(=O)c1c(NC(C)=O)sc2c(NC(C)=O)cccc12 [compound 38]
[1]
  anticancer activity (FIG. 17, tumor volumes in cancer-bearing mice): did not have anticancer activity
[2]
  alternative autophagy-inducing activity (FIG. 16): no alternative autophagy-inducing activity

## N=C(Nc1ccc2c(c1)OCCO2)Nc1nc(-c2cccs2)cc(C(F)(F)F)n1 [compound 13]
[1]; 0.4 μmol/mouse/administration, every other day five times, 21 days after implantation
  in vivo anticancer activity (tumor volume vs control group, FIG. 2): selected as compounds having in vivo anticancer activity
[1]; 5, 10, or 20 μM every other day five times, 21 days after implantation
  in vivo anticancer activity (tumor volume, FIGS. 9 to 12): exhibited in vivo anticancer activity
[1]; administered at 5 μM
  in vivo anticancer activity at low concentration (FIG. 11): exhibited remarkable anticancer activity
[6]; 1 μM
  Cell death induction rate: 0
[6]; 5 μM
  Cell death induction rate: 0.1776
[6]; 10 μM
  Cell death induction rate: 0.4559
[6]; 20 μM
  Cell death induction rate: 0.768
[6]; 50 μM
  Cell death induction rate: 0.9426
[7]
  cell death of normal cells (cell survival rate over time): hardly induced cell death of the normal cells
[8]
  aggregation of Lamp2 and occurrence of autophagy: aggregation of the lysosomal protein Lamp2 and occurrence of autophagy were observed
[9]
  cell death-inducing activity on cancer cells (cell survival rate over time): exhibited remarkable cell death-inducing activity on the cancer cells
[10]
  improvement effect on the survival rate of the cancer-bearing mice: higher improvement effect on the survival rate of the cancer-bearing mice than etoposide

## CCOC(=O)c1c(NC(C)=O)sc2c(Cl)c(/C=N/c3ccccc3)cc(Br)c12 [compound 44]
[1]
  anticancer activity (FIG. 17, tumor volumes in cancer-bearing mice): did not have anticancer activity
[2]
  alternative autophagy-inducing activity (FIG. 16): no alternative autophagy-inducing activity
